Read-outs that look alike come from different tables or passages of the source.
Legend:
M. smegmatis [1] = assay: Checkerboard assay with OCG; assay type: cell-based, Mycobacterium smegmatis; conditions: for Interaction / FICI (Fractional Inhibitory Concentration Index): drug in combination with OCG; for FICI (Fractional Inhibitory Concentration Index): range of three experiments
[2] = test system: M. smegmatis membrane potential (Δψ); conditions: OCG at 2×MIC; CCCP at various concentrations
Method: Bacterial cells were grown to late log-phase in 7H9. Cells were centrifuged at 3000×g for 5 min at 25° C., washed twice and resuspended in 10 mL of 5 mM HEPES buffer, pH 7.2 supplemented with 1 mM glucose. OD600 of the cells was then adjusted to 0.4. The cell suspension was treated with 1 μM of the potentiometric probe 3,3′-Dipropylthiadicarbocyanine Iodide (DiSC3(5)) was added. It was incubated at 37° C., and monitored the quenching of DiSC3(5) dye in the presence of M. smegmatis cells for 30 min. In a black-sided 96-well microtiter plate, polymer solution was added to the plate and serially diluted two-fold in 50 mM HEPES buffer supplemented with 1 mM glucose and 2% DMSO for a final volume of 50 μL per well and 1% DMSO. After 30 min of quenching DiSC3(5), 50 μL of the bacterial suspension with dye was added to the polymer-containing wells. […] Fluorescence was recorded 590/635 nm (excitation/emission) for 1 h every 10 min on a BioTek Synergy H1 plate reader. Assay was performed at least three independent experiments.

M. smegmatis mc^2155 [3] = conditions: 4×MIC for 1 h
Method: Similarly, outer membrane permeability assay using 10 μM N-Phenyl-2-naphthylamine in 4% acetone was used as a non-fluorescent dye that upon hydrophobic interaction, it emits fluorescence signal. Cells were grown to mid-log phase (OD600=0.5), centrifuged at 4000×g for 2 min at 25° C., washed and resuspended in 5 mM HEPES buffer, pH 7.2. Compounds were made in HEPES buffer and 50 μL was added to an optical bottom black-sided 96-well microtiter plate. Then 50 μL of 40 μM NPN solution and 100 μL of cell suspension were added to the plate. Fluorescence was measured at 350/400 nm (excitation/emission) for 1 h. Experiments were performed in triplicates.

E. coli ATCC 8739 = assay type: cell-based, Escherichia coli
MSMEG_2694 = conditions: 2×MIC for an hour, sigA housekeeping gene
Method: (§1) The bacterial cell suspension centrifuged at 40000×g for 5 min at 25° C. and resuspended in 1 mL guanidine thiocyanate (GTC) buffer. The cells were spun down at 12000×g for 5 min and resuspended in 750 μL of TRIzol reagent (Invitrogen), and added to 0.5 mL of 0.1 mm zirconia/silica beads. Cells were lysed in a bead beater for two 1 min intervals with incubation on ice between intervals. Afterwards, 2004 of chloroform was added to the tube, mixed, and spun at 12000×g for 15 min. The aqueous layer was carefully removed to 500 μL of RNase-free ethanol and mixed. From the solution, 700 μL were loaded onto Rnease Kit (Qiagen) miniprep columns and spun at 10000×g for 1 min. The remainder of the solution was then loaded and spun. The column was washed with 700 μL of RW1 buffer and discarded. The column was then washed twice with 500 μL RPE buffer and spun as previously described. The column was transferred to a new tube to elute the sample using 30 μL of RNase-free water and spun.
(§2) To ensure there is DNA-free, the sample was treated using TURBO DNA-free kit (Ambion) where a 1 μL of DNase and 3.5 μL of 10×DNase Buffer were added to the 30 μL of RNA and incubated for 1 h at 37° C. […] The concentration of RNA was determined through a ThermoFisher multichannel NanoDrop and adjusted to 50 ng/mL for cDNA reaction. […]

MSMEG_5072 = conditions: 2×MIC for an hour, sigA housekeeping gene
Method: as §1, §2

M. smegmatis [4] = conditions: after 2 h of treatment
M. smegmatis mc^2155 [5] = assay type: cell-based, Mycobacterium smegmatis
M. smegmatis mc^2155 [6] = conditions: 2×MIC
Method: M. smegmatis mc^2155 was culture as previously described in the MIC assay. […] After treatment period, 500 μL of the solution was centrifuge at 3000×g for 30 s at 25° C. The pellet was resuspended in 1 mL glutaraldehyde/cacodylate fixative solution and stored at −20° C. before imaging. Images were analyzed for significant morphological changes. The frequency of membrane ruffling, membrane delamination, cytosolic leakage, and cells that appeared hollowed (i.e., cell death) were counted and divided by the total cell number per frame. The percent of the observed cell envelope stress indicators was used for statistical analysis.

[7] = 2 mM OCG in 100 mM NaCl, titrated with 25 mM NaOH
Method: The pH was measured using a Mettler Toledo in Lab Ultra-Micro pH Probe. The acidified solution was titrated at 5 μL increments of 25 mM NaOH. The pH readings were recorded from pH ˜2.5-11. After plotting ΔpH/Δvolume of NaOH, the two points where the largest change in pH occurred were found. The median volume between the two maxima was identified as the point where pH=pKa. Solution of 100 mM NaCl served as control. Experiment was performed in triplicates.

S. aureus ATCC 6538 = assay type: cell-based, Staphylococcus aureus
[8] = Mycolicibacterium smegmatis, single agent in checkerboard assay, M. smegmatis, read-out: MIC

## COc1nc2ccc(Br)cc2cc1[C@@H](c1ccccc1)[C@@](O)(CCN(C)C)c1cccc2ccccc12 [Bedaquiline (BDQ), bedaquiline]
M. smegmatis [1]; Mycolicibacterium smegmatis
  MIC: 0.12 µg/mL
M. smegmatis [1]; M. smegmatis
  Interaction: Synergy
  FICI (Fractional Inhibitory Concentration Index): 0.38-0.5

## CC(C)/N=c1\cc2n(-c3ccc(Cl)cc3)c3ccccc3nc-2cc1Nc1ccc(Cl)cc1 [Clofazimine (CLZ), clofazimine]
M. smegmatis [1]; [8]
  MIC: 2.5 µg/mL
M. smegmatis [1]; M. smegmatis
  Interaction: Additive
  FICI (Fractional Inhibitory Concentration Index): 0.5-0.75
M. smegmatis [1]; M. smegmatis, listed as CLZ
  FICI (Fractional Inhibitory Concentration Index): 0.50-0.75

## CO[C@H]1/C=C/O[C@@]2(C)Oc3c(C)c(O)c4c(O)c(c(/C=N/N5CCN(C)CC5)c(O)c4c3C2=O)NC(=O)/C(C)=C\C=C\[C@H](C)[C@H](O)[C@@H](C)[C@@H](O)[C@@H](C)[C@H](OC(C)=O)[C@@H]1C [Rifampin (RIF), rifampin]
M. smegmatis [1]; [8]
  MIC: 8 µg/mL
M. smegmatis [1]; M. smegmatis
  Interaction: Additive
  FICI (Fractional Inhibitory Concentration Index): 1-2

## cyanide m-chlorophenyl hydrazone [CCCP, reference compound]
[2]
  membrane potential (Δψ), DiSC3(5) fluorescence: did not exhibit concentration-dependent potential changes

## oligo(carbamoylated guanidine) [OCG]
M. smegmatis mc^2155 [3]
  NPN fluorescence (membrane damage): no fluorescence intensity increase
E. coli ATCC 8739
  MIC90 Ec: >200 µg/mL
M. bovis BCG
  MIC90 BCG: 25 µg/mL
MSMEG_2694
  increased expression level of MSMEG_2694 compared to control Msm: 50 fold
Mab 3690 R
  MIC90 Mab R: 188 µg/mL
  change of MIC, Mab R morphotype compared with S: ˜three-fold increase
MSMEG_5072
  increased expression level of MSMEG_5072 compared to control Msm: 10 fold
M. smegmatis [4]
  intracellular ATP levels (RLUs/CFUs): depletion of ATP levels
B. cepacia ATCC 2516
  MIC90 Bc: >200 µg/mL
M. smegmatis mc^2155 [5]
  change of MIC, Msm cultured in LB compared with 7H9 medium: increased ˜four times
M. smegmatis mc^2155 [5]; M. smegmatis mc 155, Table 2
  MIC90 Msm: 6 µg/mL
M. smegmatis mc^2155 [5]; Msm mc^2 155 grown in 7H9 medium
  MIC90 Msm: 6 µg/mL
M. smegmatis mc^2155 [5]; Msm mc^2 155 grown in LB
  MIC90 Msm: 25 to 50 µg/mL
C. albicans ATCC 10231
  MIC90 Ca: >200 µg/mL
M. smegmatis mc^2155 [6]; starting from 1 h
  TEM: membrane ruffling and delamination: signs of membrane stress including ruffling and delamination were observed
M. smegmatis mc^2155 [6]; up to 24 h incubation
  TEM: frequency of cytosolic leakage, treated vs non-treated: no significant difference
[7]
  pKa: ~5
S. aureus ATCC 6538
  MIC90 Sa: 50 µg/mL
P. aureginosa ATCC 15442
  MIC90 Pa: >200 µg/mL
M. smegmatis [1]; single agent in checkerboard assay, M. smegmatis
  MIC: 6 µM
Mab 3690 S
  MIC90 Mab S: 65 µg/mL
